{"source": "ChEMBL document CHEMBL1201862", "about": "“PubChem BioAssay data set” (2004)", "key": {"[1]": {"molecular_target": "Alkaline phosphatase, placental type (Homo sapiens, UniProt P05187)", "sequence (P05187 whole entry)": "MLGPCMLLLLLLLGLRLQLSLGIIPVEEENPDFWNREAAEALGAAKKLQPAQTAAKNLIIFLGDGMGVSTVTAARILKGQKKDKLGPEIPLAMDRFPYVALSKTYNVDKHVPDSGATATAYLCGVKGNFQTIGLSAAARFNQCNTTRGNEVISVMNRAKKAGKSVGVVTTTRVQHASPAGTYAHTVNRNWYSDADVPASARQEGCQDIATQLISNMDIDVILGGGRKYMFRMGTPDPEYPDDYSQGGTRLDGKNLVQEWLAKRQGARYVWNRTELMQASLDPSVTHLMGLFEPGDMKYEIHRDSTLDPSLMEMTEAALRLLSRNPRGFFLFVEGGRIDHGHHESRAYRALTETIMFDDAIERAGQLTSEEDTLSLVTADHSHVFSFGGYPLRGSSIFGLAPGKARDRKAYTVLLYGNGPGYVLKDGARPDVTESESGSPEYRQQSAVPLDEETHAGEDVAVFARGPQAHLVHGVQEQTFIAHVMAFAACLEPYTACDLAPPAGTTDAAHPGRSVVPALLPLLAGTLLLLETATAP", "experiment": "human placental alkaline phosphatase inhibition – biochemical, luminescence, confirmation (AID 1512)", "format": "functional"}, "[2]": {"molecular_target": "T1, Intestinal-type alkaline phosphatase (Homo sapiens, UniProt P09923)", "T1 sequence (P09923 whole entry)": "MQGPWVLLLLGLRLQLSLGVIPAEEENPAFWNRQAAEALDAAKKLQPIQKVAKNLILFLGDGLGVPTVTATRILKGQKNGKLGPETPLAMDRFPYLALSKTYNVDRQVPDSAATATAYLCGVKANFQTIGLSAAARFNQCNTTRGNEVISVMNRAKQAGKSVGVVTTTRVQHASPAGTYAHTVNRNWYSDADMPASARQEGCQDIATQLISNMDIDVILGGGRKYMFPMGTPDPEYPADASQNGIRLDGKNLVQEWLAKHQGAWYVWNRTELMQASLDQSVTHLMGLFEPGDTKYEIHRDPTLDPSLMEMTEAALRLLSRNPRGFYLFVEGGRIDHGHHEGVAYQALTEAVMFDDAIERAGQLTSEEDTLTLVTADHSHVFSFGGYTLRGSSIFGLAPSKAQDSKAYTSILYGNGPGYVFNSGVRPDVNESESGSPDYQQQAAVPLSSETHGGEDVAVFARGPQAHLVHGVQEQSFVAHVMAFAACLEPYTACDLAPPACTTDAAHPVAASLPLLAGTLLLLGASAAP", "experiment": "activation of human intestinal alkaline phosphatase – biochemical, luminescent, uHTS hits, set 2, dose response (AID 488817);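 note: potency of activators that raise enzyme activity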", "format": "functional"}, "[3]": {"molecular_target": "T2, Mannose-6-phosphate isomerase (Homo sapiens, UniProt P34949)", "T2 sequence (P34949 whole entry)": "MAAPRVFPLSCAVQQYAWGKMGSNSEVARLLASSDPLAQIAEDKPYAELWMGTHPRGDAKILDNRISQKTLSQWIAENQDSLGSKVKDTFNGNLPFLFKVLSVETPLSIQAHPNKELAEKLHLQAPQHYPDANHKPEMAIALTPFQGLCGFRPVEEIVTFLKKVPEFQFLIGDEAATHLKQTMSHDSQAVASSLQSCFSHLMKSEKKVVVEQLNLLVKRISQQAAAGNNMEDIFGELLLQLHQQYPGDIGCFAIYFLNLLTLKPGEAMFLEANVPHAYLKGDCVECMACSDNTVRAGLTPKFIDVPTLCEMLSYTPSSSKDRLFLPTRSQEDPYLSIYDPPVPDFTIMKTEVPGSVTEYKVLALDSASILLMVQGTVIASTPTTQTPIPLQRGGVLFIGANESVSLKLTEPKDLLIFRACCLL", "experiment": "Confirmation of compounds inhibiting phosphomannose isomerase (PMI) via a fluorescence intensity assay using a high concentration of mannose 6-phosphate. [Related pubchem assays (depositor defined):AID1209, AID1220, AID1545, AID1553, AID1620]"}, "[4]": {"molecular_target": "T3, Endoribonuclease toxin MazF (Escherichia coli K-12, UniProt P0AE70)", "T3 sequence (P0AE70 whole entry)": "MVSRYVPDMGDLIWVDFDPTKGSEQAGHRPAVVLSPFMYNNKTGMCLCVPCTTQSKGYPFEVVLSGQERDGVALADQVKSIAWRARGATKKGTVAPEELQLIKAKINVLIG", "experiment": "substrate-only fluorescence increase artefacts – biochemical, single-stranded RNase substrate, counter-screen for MazEF activator project, dose response (AID 588502)", "format": "functional"}, "[5]": {"molecular_target": "Heat shock protein HSP 90-alpha (Homo sapiens, UniProt P07900)", "format": "functional, organism-based"}, "CHO": {"test_system": "CHO", "experiment": "CHO cell viability loss, potency – luminescence, cytotoxicity control for TLR9-MyD88 binding inhibitor project, dose response (AID 588339);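 note: CHO cells stably coexpressing TLR9 and MyD88 fusions from primary screen; compound exposure lasted 48 hours before viability readout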", "format": "functional, cell-based, hamster", "conditions": "Cricetulus griseus"}, "[6]": {"molecular_target": "Intestinal-type alkaline phosphatase (Mus musculus, UniProt P24822)", "sequence (P24822 whole entry)": "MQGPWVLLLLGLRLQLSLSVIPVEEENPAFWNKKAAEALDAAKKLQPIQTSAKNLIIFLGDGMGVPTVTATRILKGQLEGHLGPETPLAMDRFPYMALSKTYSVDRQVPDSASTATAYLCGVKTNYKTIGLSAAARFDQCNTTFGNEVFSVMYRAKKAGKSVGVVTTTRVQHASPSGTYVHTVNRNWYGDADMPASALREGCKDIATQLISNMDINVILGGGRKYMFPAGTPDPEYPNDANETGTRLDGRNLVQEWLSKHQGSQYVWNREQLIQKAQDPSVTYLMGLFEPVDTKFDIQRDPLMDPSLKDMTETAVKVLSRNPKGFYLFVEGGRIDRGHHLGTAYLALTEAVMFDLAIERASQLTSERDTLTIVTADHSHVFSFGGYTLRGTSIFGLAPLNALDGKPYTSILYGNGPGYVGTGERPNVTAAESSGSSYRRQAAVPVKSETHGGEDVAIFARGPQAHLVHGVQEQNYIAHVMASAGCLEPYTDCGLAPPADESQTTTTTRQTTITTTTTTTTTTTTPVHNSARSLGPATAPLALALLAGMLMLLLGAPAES", "experiment": "PubChem AID 488874", "format": "functional"}, "[7]": {"molecular_target": "T2, Mannose-6-phosphate isomerase", "experiment": "phosphomannose isomerase inhibition – biochemical, fluorescence intensity, confirmation (AID 1535)"}, "[8]": {"molecular_target": "T1, Intestinal-type alkaline phosphatase", "experiment": "human intestinal alkaline phosphatase activators, dose response, biochemical, luminescence, uHTS hits (AID 463120)", "format": "functional"}, "[9]": {"molecular_target": "T3, Endoribonuclease toxin MazF", "experiment": "activation of MazEF endoribonuclease cleavage – biochemical, fluorescence, single-stranded RNA substrate, uHTS hits, dose response (AID 588481)", "format": "functional"}, "[10]": {"experiment": "microbe, parasite or virus in culture", "format": "functional", "conditions": "Mycobacterium tuberculosis"}, "[11]": {"experiment": "luciferase reporter signal suppression in cells – H4 neuroglioma cells, luminescence, dose response (AID 1990)", "format": "functional, cell-based"}, "[12]": {"experiment": "Luminescence Cell-Based Dose Response HTS to Identify Inhibitors of 5'UTR Stem-Loop Driven Prion Protein mRNA Translation in H4 Neuroglioblastoma Cells. [Related pubchem assays: 1827 (Project Summary), 1813 (Primary HTS)]", "format": "functional"}, "[13]": {"molecular_target": "Type-1 angiotensin II receptor (Homo sapiens, UniProt P30556)", "sequence (P30556 whole entry, the tested form may be a part)": "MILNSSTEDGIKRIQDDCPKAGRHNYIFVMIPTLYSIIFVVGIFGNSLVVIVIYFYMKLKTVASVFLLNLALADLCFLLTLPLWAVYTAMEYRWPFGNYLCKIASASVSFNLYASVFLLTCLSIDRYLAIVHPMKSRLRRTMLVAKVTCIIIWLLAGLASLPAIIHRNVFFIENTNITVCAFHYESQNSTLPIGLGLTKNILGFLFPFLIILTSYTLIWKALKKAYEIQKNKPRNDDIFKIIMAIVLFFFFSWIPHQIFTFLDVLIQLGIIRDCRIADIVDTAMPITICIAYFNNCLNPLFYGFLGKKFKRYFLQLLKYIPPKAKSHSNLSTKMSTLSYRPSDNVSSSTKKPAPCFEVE", "experiment": "agonist activity at AGTR1 – cell-based, uHTS hits, selectivity assay for APJ receptor agonist project, dose response (AID 488865);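 note: beta-arrestin recruitment to AT1 measured by enzyme fragment complementation luminescence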", "format": "functional"}, "[14]": {"experiment": "alpha-synuclein stem-loop luciferase translation blockers – H4 neuroglioma cells, luminescence, confirmation (AID 1988)", "format": "functional, cell-based"}, "Coagulation factor XII": {"molecular_target": "T4, Coagulation factor XII (Homo sapiens, UniProt P00748)", "T4 sequence (P00748 whole entry)": "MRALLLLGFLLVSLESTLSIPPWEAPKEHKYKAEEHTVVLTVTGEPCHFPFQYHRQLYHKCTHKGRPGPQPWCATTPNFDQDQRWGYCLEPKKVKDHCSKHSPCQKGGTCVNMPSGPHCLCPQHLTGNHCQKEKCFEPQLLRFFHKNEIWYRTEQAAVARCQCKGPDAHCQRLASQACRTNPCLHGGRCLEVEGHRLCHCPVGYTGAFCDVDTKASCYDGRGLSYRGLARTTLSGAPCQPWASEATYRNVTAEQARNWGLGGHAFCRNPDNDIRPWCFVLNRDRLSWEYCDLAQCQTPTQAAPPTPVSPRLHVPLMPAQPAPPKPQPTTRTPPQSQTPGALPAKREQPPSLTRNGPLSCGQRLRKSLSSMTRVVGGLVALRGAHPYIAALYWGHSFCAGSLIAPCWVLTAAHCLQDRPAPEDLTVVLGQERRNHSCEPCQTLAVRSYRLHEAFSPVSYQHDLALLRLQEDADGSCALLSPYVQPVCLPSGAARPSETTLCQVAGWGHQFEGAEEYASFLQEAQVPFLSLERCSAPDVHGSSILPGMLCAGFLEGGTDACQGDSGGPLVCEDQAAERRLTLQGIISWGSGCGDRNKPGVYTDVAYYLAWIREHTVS", "experiment": "Factor XIIa Dose Response Confirmation from Single Well HTS. [Related pubchem assays (depositor defined):AID701]", "format": "functional"}, "[15]": {"molecular_target": "T5, Dual specificity protein phosphatase 3 (Homo sapiens, UniProt P51452)", "T5 sequence (P51452 whole entry)": "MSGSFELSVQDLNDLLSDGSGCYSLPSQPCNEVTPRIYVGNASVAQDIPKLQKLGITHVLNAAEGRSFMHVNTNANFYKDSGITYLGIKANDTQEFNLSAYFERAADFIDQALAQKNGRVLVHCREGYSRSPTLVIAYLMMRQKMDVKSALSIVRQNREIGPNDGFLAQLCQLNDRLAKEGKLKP", "experiment": "SAR VHR1 absorbance Assay for In Vitro dose response studies. [Related pubchem assays (depositor defined):AID1654, AID1661, AID1878, AID1992, AID2004]"}, "[16]": {"molecular_target": "T6, Dual specificity protein phosphatase 6 (Rattus norvegicus, UniProt Q64346)", "T6 sequence (Q64346 whole entry)": "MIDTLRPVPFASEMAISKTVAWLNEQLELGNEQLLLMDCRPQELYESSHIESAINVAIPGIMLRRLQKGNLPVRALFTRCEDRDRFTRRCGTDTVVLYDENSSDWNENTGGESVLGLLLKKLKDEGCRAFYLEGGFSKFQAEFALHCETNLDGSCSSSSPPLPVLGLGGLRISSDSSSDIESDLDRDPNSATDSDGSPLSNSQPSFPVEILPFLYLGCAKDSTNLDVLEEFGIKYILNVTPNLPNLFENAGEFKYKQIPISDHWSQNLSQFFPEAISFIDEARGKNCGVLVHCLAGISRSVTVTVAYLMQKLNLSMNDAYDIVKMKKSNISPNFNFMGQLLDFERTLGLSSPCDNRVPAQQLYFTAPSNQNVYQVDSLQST", "format": "functional"}, "[17]": {"molecular_target": "T5, Dual specificity protein phosphatase 3", "experiment": "SAR VHR1 Fluorescent Assay for In Vitro dose response studies Set 2. [Related pubchem assays (depositor defined):AID1654, AID1661, AID1878]", "format": "functional"}, "[18]": {"molecular_target": "T7, Tyrosine-protein phosphatase non-receptor type 7 (Homo sapiens, UniProt P35236)", "T7 sequence (P35236 whole entry)": "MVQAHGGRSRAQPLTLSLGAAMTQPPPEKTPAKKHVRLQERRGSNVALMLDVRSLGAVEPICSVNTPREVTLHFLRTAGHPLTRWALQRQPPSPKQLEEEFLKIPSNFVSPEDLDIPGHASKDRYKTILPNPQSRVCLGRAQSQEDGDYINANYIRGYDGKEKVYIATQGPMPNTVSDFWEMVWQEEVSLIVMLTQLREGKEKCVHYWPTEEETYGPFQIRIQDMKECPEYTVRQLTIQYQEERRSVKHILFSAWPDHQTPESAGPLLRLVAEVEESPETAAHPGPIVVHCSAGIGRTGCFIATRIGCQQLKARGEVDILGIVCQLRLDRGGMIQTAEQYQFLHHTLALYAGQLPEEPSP", "experiment": "redox-active compounds inhibiting HePTP phosphatase – biochemical, fluorescence, mechanism study (AID 2068)", "format": "functional"}, "[19]": {"molecular_target": "T7, Tyrosine-protein phosphatase non-receptor type 7", "experiment": "SAR analysis of chemical inhibitors of HePTP using a Fluorescent assay - Set 2. [Related pubchem assays (depositor defined):AID1059, AID1077, AID1661, AID2085, AID521]", "format": "functional"}, "[20]": {"molecular_target": "T7, Tyrosine-protein phosphatase non-receptor type 7", "experiment": "inhibition of hematopoietic tyrosine phosphatase HePTP – biochemical, set 2, SAR follow-up (AID 449736)", "format": "functional"}, "[21]": {"molecular_target": "T6, Dual specificity protein phosphatase 6", "experiment": "SAR analysis of inhibitors of MKP-3 - Set 2. [Related pubchem assays (depositor defined):AID1055, AID1661, AID425, AID553, AID566]", "format": "functional"}, "[22]": {"molecular_target": "T5, Dual specificity protein phosphatase 3", "experiment": "SAR VHR1 Fluorescent Assay for In Vitro dose response studies. [Related pubchem assays (depositor defined):AID1654, AID1661, AID1878, AID1992, AID2004, AID2070, AID2085]", "format": "functional"}}, "note": "Activity calls are given as the source filed them."}
{"molecule": "O=C1Nc2ccc(Br)cc2C12NNc1ccccc1O2", "note": "(centres undefined)", "values": [{"measurement": "IC50", "setting": "[1]", "result": "> 100 µM (inactive)"}, {"measurement": "EC50", "setting": "[2]", "result": "0.257 µM (active)"}, {"measurement": "IC50", "setting": "[3]", "result": "> 100 µM (inactive)"}, {"measurement": "EC50", "setting": "[4]", "result": "73.1 µM (inactive)"}, {"measurement": "AC50", "setting": "[5]", "result": "3.34 µM (active)"}, {"measurement": "IC50", "setting": "CHO", "result": "11.3 µM (inactive)"}, {"measurement": "IC50", "setting": "[6]", "result": "8.09 µM (active)"}, {"measurement": "IC50", "setting": "[7]", "result": "> 100 µM (inactive)"}, {"measurement": "EC50", "setting": "[8]", "result": "10.1 µM (active)"}, {"measurement": "EC50", "setting": "[9]", "result": "> 99 µM (inactive)"}, {"measurement": "CC50", "setting": "[10]", "result": "23.8 µM (active)"}]}
{"molecule": "C=CCn1c(SCC(=O)N2CCN(c3ccccc3)CC2)nc2c3ccccc3nc-2c1O", "values": [{"measurement": "EC50", "setting": "[11]", "result": "> 120 µM (not active)"}, {"measurement": "EC50", "setting": "[12]", "result": "14.2 µM (active)"}, {"measurement": "EC50", "setting": "[13]", "result": "> 100 µM (inactive)"}, {"measurement": "EC50", "setting": "[14]", "result": "8.55 µM (active)"}]}
{"molecule": "O=C(Oc1ccc2c3c(c(=O)oc2c1)CCC3)c1ccco1", "values": [{"measurement": "IC50", "setting": "Coagulation factor XII", "result": "6.22 µM (active)"}]}
{"molecule": "NS(=O)(=O)c1ccc(NC(=S)N2CCN(Cc3ccc4c(c3)OCO4)CC2)cc1", "values": [{"measurement": "IC50", "setting": "[15]", "result": "5.41 µM (active)"}, {"measurement": "IC50", "setting": "[16]", "result": "> 99 µM (inactive)"}, {"measurement": "IC50", "setting": "[17]", "result": "1.69 µM (active)"}, {"measurement": "IC50", "setting": "[18]", "result": "0.196 µM (active)"}, {"measurement": "IC50", "setting": "[19]", "result": "4.32 µM (active)"}, {"measurement": "IC50", "setting": "[20]", "result": "> 100 µM (inactive)"}, {"measurement": "IC50", "setting": "[21]", "result": "> 100 µM (inactive)"}, {"measurement": "IC50", "setting": "[22]", "result": "> 99 µM (inactive)"}]}
